ChEMBL document CHEMBL4507291 (2021)

Key:
[1] = system: Tyrosine-protein kinase ABL1 (Homo sapiens), P00519 [Y253F]; assay: ABL1 Y253F Kinase screen; conditions: Compound concentration 1.0 uM
[2] = molecular target: Calcium/calmodulin-dependent protein kinase type II subunit delta (Homo sapiens) (UniProt Q13557); assay: CAMK2D (CaMKII delta) Kinase screen; conditions: Compound concentration 1.0 uM
[3] = molecular target: Dual specificity protein kinase CLK2 (Homo sapiens) (UniProt P49760); assay: CLK2 Kinase screen; conditions: Compound concentration 1.0 uM
Sequence of Dual specificity protein kinase CLK2 (Homo sapiens) (P49760 whole entry, looked up): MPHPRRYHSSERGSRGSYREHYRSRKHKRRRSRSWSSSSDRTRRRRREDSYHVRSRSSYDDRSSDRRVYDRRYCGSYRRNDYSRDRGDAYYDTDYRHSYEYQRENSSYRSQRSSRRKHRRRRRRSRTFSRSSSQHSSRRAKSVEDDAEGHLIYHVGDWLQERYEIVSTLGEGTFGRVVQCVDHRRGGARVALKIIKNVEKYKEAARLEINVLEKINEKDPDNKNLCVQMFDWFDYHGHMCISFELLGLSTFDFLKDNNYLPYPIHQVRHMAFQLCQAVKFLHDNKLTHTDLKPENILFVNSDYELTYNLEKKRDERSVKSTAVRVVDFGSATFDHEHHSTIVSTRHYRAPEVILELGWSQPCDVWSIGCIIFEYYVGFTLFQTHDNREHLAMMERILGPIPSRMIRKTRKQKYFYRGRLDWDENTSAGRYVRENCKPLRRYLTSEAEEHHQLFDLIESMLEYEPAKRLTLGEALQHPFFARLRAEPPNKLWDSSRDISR

[4] = molecular target: Death-associated protein kinase 3 (Homo sapiens) (UniProt O43293); assay: DAPK3 (ZIPK) Kinase screen; conditions: Compound concentration 1.0 uM
Sequence of Death-associated protein kinase 3 (Homo sapiens) (O43293 whole entry, looked up): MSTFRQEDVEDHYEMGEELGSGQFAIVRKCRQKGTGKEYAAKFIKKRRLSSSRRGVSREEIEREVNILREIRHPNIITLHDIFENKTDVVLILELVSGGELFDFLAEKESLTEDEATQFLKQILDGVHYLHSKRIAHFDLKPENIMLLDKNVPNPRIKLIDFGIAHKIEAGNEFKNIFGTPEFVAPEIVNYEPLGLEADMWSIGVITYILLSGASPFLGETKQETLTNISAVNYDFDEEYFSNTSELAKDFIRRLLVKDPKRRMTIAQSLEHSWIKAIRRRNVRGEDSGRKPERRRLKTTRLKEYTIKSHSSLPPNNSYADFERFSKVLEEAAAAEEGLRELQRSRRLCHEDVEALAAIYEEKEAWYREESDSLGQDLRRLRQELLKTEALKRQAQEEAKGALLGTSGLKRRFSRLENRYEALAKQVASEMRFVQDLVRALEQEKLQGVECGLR

[5] = molecular target: T1, Myotonin-protein kinase (Homo sapiens) (UniProt Q09013); assay: DMPK Kinase screen; conditions: Compound concentration 1.0 uM
T1 sequence (whole entry): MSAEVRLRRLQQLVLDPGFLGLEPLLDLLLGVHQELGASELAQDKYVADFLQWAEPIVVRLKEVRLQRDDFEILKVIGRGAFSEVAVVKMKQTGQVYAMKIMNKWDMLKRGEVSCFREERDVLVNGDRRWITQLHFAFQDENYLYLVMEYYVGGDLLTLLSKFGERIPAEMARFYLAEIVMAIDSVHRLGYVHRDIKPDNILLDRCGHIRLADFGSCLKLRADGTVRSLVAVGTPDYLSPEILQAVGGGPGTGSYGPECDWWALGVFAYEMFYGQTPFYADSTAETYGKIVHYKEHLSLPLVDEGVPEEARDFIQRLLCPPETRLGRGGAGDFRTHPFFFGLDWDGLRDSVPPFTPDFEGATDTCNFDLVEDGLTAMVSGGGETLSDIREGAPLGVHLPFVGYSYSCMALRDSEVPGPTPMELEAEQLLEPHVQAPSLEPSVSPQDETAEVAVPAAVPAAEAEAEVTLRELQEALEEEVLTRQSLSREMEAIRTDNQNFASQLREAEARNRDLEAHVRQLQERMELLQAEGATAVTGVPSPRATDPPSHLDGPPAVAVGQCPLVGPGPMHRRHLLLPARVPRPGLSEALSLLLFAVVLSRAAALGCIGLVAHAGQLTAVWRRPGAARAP

[6] = molecular target: Ephrin type-A receptor 4 (Homo sapiens) (UniProt P54764); assay: EPHA4 Kinase screen; conditions: Compound concentration 1.0 uM
[7] = molecular target: T2, Ephrin type-A receptor 8 (Homo sapiens) (UniProt P29322); assay: EPHA8 Kinase screen; conditions: Compound concentration 1.0 uM
T2 sequence (whole entry): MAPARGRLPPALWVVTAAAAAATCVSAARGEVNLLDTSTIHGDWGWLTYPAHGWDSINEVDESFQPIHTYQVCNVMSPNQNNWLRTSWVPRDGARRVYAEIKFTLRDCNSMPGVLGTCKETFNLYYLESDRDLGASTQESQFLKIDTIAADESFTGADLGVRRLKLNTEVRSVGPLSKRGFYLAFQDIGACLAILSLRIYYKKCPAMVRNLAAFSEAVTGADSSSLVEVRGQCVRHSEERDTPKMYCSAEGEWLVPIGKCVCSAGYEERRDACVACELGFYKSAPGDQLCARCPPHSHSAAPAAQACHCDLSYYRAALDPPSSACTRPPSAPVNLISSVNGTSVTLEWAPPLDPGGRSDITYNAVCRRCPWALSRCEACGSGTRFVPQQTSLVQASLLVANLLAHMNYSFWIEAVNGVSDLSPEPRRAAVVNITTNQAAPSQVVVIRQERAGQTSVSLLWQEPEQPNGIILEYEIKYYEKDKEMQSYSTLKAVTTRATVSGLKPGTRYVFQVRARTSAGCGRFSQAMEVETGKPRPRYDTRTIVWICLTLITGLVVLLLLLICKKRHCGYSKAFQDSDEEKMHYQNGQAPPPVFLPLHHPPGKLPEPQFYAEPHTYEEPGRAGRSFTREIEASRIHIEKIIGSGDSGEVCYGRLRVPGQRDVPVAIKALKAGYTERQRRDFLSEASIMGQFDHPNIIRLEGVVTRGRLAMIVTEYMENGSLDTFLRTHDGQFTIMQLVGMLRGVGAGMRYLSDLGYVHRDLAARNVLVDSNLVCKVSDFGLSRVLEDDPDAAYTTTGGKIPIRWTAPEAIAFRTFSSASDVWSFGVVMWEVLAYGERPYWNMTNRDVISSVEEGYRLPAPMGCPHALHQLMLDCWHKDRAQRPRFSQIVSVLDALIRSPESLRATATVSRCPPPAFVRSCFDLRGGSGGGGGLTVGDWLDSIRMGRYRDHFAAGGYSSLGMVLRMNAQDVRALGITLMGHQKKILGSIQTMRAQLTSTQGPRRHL

[8] = molecular target: Tyrosine-protein kinase Fer (Homo sapiens) (UniProt P16591); assay: FER Kinase screen; conditions: Compound concentration 1.0 uM
Sequence of Tyrosine-protein kinase Fer (Homo sapiens) (P16591 whole entry, looked up): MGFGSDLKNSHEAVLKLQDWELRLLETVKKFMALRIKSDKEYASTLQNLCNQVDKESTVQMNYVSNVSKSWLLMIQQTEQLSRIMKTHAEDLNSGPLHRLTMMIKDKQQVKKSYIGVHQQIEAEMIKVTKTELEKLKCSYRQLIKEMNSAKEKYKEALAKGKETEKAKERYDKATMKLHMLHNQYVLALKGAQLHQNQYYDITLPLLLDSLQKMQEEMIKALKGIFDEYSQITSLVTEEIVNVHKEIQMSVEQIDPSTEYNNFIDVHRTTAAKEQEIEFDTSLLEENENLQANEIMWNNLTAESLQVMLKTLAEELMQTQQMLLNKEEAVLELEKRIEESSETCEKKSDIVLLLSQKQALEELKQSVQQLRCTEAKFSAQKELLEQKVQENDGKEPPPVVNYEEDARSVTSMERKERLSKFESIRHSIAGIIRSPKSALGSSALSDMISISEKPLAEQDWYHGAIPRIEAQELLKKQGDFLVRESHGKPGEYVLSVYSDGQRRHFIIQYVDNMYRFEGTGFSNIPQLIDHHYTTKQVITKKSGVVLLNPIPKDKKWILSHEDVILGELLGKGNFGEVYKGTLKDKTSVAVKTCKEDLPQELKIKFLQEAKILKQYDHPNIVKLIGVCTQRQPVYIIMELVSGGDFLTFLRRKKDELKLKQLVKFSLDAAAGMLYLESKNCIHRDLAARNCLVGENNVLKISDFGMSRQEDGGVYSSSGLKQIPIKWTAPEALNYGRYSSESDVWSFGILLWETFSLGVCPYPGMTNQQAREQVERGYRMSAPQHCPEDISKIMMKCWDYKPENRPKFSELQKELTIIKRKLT

[9] = molecular target: Leukocyte tyrosine kinase receptor (Homo sapiens) (UniProt P29376); assay: LTK (TYK1) Kinase screen; conditions: Compound concentration 1.0 uM
Sequence of Leukocyte tyrosine kinase receptor (Homo sapiens) (P29376 whole entry): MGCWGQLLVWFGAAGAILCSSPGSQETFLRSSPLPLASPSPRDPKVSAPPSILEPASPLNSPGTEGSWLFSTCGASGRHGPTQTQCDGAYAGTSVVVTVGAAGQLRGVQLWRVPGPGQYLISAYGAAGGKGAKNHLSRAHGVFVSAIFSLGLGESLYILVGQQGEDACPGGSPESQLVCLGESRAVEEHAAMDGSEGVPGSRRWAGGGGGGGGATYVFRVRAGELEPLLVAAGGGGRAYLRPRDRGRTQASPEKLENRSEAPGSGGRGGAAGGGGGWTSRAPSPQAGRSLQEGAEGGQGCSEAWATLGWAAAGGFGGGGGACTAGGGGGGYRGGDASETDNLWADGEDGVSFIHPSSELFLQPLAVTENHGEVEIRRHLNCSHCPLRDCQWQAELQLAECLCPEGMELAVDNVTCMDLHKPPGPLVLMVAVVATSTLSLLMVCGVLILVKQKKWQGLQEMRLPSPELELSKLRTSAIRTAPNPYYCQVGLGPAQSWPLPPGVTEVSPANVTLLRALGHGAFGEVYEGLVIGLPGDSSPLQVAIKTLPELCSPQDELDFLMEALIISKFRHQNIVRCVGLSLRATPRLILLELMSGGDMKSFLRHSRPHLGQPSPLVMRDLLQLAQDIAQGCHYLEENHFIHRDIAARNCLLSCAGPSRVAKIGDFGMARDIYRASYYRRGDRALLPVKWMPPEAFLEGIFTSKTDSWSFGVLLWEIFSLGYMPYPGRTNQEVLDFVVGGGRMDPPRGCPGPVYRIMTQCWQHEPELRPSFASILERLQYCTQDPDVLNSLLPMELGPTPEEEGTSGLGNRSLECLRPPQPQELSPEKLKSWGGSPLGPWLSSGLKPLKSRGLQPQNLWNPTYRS

[10] = molecular target: T3, MAP kinase-activated protein kinase 5 (Homo sapiens) (UniProt Q8IW41); assay: MAPKAPK5 (PRAK) Kinase screen; conditions: Compound concentration 1.0 uM
T3 sequence (whole entry): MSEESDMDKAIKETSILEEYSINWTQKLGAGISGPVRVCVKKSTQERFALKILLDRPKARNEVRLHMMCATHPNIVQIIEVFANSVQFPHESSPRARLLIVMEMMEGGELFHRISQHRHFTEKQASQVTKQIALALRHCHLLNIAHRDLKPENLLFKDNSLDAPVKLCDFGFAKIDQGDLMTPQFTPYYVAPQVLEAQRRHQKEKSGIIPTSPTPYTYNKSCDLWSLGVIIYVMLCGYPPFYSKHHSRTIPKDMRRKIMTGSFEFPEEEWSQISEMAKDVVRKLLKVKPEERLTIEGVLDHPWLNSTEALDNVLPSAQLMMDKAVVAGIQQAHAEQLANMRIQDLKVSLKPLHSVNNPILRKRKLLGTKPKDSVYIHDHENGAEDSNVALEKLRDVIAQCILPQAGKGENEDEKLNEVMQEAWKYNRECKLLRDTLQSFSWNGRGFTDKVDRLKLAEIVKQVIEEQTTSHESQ

[11] = molecular target: Platelet-derived growth factor receptor alpha (Homo sapiens) (UniProt P16234); assay: PDGFRA (PDGFR alpha) Kinase screen; conditions: Compound concentration 1.0 uM
Sequence of Platelet-derived growth factor receptor alpha (Homo sapiens) (P16234 whole entry): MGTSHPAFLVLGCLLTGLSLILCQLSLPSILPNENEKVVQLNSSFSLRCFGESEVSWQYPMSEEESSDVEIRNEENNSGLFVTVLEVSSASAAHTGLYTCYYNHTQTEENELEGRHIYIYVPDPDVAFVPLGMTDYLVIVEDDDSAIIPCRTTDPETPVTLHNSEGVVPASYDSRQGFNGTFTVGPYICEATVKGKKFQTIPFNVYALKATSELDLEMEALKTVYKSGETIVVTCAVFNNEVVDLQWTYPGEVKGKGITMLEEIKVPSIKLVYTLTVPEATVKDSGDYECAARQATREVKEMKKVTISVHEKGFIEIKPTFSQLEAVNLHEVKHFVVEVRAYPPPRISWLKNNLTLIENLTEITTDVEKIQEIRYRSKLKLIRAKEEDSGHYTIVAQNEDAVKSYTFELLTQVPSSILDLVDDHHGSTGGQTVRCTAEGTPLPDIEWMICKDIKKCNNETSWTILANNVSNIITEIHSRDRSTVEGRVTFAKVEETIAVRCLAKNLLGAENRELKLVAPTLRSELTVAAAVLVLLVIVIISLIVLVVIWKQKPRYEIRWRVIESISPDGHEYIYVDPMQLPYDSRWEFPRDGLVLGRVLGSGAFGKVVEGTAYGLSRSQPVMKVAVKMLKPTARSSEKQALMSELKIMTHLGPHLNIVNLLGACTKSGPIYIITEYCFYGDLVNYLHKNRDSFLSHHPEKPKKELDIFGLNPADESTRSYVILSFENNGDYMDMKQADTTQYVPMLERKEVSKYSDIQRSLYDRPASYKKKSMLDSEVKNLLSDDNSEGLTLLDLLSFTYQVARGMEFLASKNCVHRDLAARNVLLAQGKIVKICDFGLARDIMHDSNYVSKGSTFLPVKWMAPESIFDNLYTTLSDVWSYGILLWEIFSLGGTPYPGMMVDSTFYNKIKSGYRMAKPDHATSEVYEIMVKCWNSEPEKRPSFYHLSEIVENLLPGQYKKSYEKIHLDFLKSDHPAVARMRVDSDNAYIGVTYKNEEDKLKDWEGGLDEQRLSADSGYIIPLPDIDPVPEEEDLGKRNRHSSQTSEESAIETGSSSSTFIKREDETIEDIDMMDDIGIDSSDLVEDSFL

[12] = molecular target: PI3-kinase p110-alpha/p85-alpha (Homo sapiens) (UniProt P27986+P42336); assay: PIK3CA/PIK3R1 (p110 alpha/p85 alpha) Kinase screen; format: protein-complex assay; conditions: Compound concentration 1.0 uM
[13] = molecular target: Melanocyte-stimulating hormone receptor (Homo sapiens) (UniProt Q01726); assay: Melanocortin MC1 Eurofins-Panlabs radioligand binding assay; conditions: Compound concentration 10.0 uM
[14] = molecular target: Beta-2 adrenergic receptor (Homo sapiens) (UniProt P07550); conditions: Compound concentration 10.0 uM
Sequence of Beta-2 adrenergic receptor (Homo sapiens) (P07550 whole entry, looked up): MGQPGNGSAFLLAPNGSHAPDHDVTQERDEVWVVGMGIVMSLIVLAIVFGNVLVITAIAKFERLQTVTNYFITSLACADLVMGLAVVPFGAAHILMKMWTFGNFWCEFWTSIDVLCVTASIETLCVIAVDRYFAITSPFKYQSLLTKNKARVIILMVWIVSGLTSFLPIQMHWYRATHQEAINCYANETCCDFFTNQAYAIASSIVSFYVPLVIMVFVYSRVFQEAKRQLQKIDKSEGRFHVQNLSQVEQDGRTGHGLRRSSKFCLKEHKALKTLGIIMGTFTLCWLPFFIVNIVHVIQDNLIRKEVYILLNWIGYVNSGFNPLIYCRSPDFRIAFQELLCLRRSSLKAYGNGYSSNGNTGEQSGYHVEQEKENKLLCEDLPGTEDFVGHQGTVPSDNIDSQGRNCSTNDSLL

[15] = molecular target: Sodium-dependent dopamine transporter (Homo sapiens) (UniProt Q01959); conditions: Compound concentration 10.0 uM
[16] = molecular target: Testis-specific serine/threonine-protein kinase 1 (TSSK1B) (Homo sapiens) (UniProt Q9BXA7); assay: STK22D (TSSK1) Kinase screen; conditions: Compound concentration 1.0 uM
Sequence of Testis-specific serine/threonine-protein kinase 1 (TSSK1B) (Homo sapiens) (Q9BXA7 whole entry, looked up): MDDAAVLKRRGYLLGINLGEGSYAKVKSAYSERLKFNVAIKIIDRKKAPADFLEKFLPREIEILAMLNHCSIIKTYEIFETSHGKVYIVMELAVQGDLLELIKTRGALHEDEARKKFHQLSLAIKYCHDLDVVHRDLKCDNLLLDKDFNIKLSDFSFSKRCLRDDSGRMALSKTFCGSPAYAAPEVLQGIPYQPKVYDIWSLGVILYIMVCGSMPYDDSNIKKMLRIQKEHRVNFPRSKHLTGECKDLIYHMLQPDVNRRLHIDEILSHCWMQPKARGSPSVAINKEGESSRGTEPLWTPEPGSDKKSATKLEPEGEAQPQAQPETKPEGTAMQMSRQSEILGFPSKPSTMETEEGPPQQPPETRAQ

[17] = molecular target: 5-hydroxytryptamine receptor 7 (Homo sapiens) (UniProt P34969); conditions: Compound concentration 10.0 uM
[18] = molecular target: D(2) dopamine receptor (Homo sapiens) (UniProt P14416); conditions: Compound concentration 10.0 uM
Sequence of D(2) dopamine receptor (Homo sapiens) (P14416 whole entry): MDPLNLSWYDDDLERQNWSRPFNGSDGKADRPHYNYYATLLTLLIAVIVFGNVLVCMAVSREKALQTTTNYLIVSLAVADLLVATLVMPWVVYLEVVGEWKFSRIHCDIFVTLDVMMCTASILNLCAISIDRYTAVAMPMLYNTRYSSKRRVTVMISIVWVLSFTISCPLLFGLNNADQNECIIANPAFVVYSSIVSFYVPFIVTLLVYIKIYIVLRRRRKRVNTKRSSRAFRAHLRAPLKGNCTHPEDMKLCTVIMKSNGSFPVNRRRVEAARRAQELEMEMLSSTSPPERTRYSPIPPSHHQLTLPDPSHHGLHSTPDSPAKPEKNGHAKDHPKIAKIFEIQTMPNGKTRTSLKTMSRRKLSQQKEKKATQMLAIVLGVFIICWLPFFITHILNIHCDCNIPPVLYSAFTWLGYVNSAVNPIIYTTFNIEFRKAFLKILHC

Measured: inhibition

C[C@@H]1CN(c2cc(-c3n[nH]c4ccc(OC5(C)CC5)cc34)ncn2)C[C@H](C)O1 [MLi-2]
inactive: [1] 7.26% | [2] 23.9% | [3] 55% | [4] 5.27% | [5] 5.71% | [6] 4.82% | [7] 7.44% | [8] 26.7% | [9] 42.4% | [10] 14.2% | [11] 0.395% | [12] 3.21% | [13] -1% | [14] 16% | [15] 16% | [16] 15.8%

C[C@@H]1CN(c2cc(-c3nn(C)c4ccc(OC5(C)CC5)cc34)ncn2)C[C@H](C)O1 [MLi-2-NC]
inactive: [17] -0.4% | [18] -0.18%
